Source: EP0851902B1, “METHOD FOR COATING” (F2 Chemicals Ltd., priority 1995, dated 1997)

Test: Water solubility (typical physical properties, Table 1)
Assay type: physicochemical
Conditions: components of the 2% w/w solution of resin in perfluorohexane
Procedure: A solution of a fluoropolymer resin, prepared in accordance with details given in PCT Patent Application No. WO 94/05498 (and documents referred to therein), was prepared by dissolving sufficient of it, at room temperature in perfluorohexane ("FLUTEC" PP-1 from BNFL Fluorochemicals Ltd) to make a 2% w/w solution.

Water Solubility: Insoluble
SMILES: FC(F)(F)C(F)(F)C(F)(F)C(F)(F)C(F)(F)C(F)(F)F [SOLVENT, perfluorohexane]
